Columns and labels:
[1] = single dose 32 mg ruboxistaurin, healthy subjects (FIG. 5); cited from earlier work
[2] = human, microsomes, 1 μM
protein kinase C = details: cited from earlier work
[3] = in vivo; cited from earlier work
[4] = Blood/brain barrier penetration, pharmacokinetic study in rats; details: rat, 1 mg/kg intravenously
Excerpt: Blood samples were collected from 3 animals at 0.25, 1-, and 4-hours post-dose. Brain samples were collected from 9 other rats, 3 each at 0.25, 1-, and 4-hours post-dose. Brain samples were weighted and homogenized with phosphate buffered saline.

[5] = system: rats treated with dextroamphetamine; assay: Ultrasonic vocalizations in rats induced by dextroamphetamine; type: in vivo, male Wistar rats; details: rats, 10, 30, 100 mg/kg IP 60 minutes before D-amphetamine 2.5 mg/kg IP (FIG. 9)
Method: 98 male Wistar rats were acclimated to the testing facility and handled daily (10 min/day) for 7 days prior to initiating the experiment. […] Rats were placed in white Plexiglas boxes (50×50×50 cm) and videotaped for 10 minutes to acclimate them to the test apparatus. Ultrasonic vocalizations (USV) were recorded with a microphone mounted 45 cm above the open field box to establish baseline, non-treatment related USV responses (50-kHz calls) in each rat. The next day, rats were injected with saline (1 mL/kg body weight, IP) and immediately placed into open field-testing boxes. USVs were recorded for 10 min.

increase of compound levels at 15 minutes by CYP3A4 inhibitor troleandomycin [2] [fold] | Compound | half-life (t½) [1] [h] | potency of protein kinase C inhibition, ruboxistaurin vs. N-desmethyl ruboxistaurin (protein kinase C) | elimination half-life [3] | Mean brain ([4]; 0.25 hr) [ng/g] | Mean plasma ([4]; 0.25 hr) [ng/mL] | Mean brain ([4]; 1 hr) [ng/g] | Mean plasma ([4]; 1 hr) [ng/mL] | Mean brain ([4]; 4 hr) [ng/g] | Mean plasma ([4]; 4 hr) [ng/mL] | effect on ultrasonic appetitive vocalizations (50-kHz calls) [5]
23 | CN(C)C[C@@H]1CCn2cc(c3ccccc32)C2=C(C(=O)NC2=O)c2cn(c3ccccc23)CCO1 [Ruboxistaurin] | 5.25 | equipotent | – | – | – | – | – | – | – | –
– | [Li] [lithium] | – | – | about 18 hours | – | – | – | – | – | – | –
– | (12E,32E,7S)-7-((methylamino)methyl)-22,25-dihydro-11H,21H,31H-6-oxa-1,3(3,1)-diindola-2(3,4)-pyrrolacyclononaphane-22,25-dione hydrochloride [N-desmethyl ruboxistaurin] | 23.9 | – | – | 21.0 | 73.3 | 19.5 | 43.5 | 13.3 | 11.8 | able to reduce ultrasonic appetitive vocalizations
